Literature values, collected in US11723919B2, “Composition or combination comprising anionic dietary supplement and 25-hydroxy vitamin D” (Phibro Animal Health Corporation, priority 2020, dated 2023).

Test system: dairy cows
Conditions: administration pre- or post-calving; Guo et al. 2018

## C=C1CC[C@H](O)C/C1=C/C=C1\CCC[C@]2(C)[C@@H]([C@H](C)CCCC(C)(C)O)CC[C@@H]12 [25-hydroxy vitamin D, 25-hydroxy vitamin D3]
  effect on milk yield: no effect
